Experimental data from article PMC9501633, “Synthesis, Characterisation and Mechanism of Action of Anticancer 3-Fluoroazetidin-2-ones” (Pharmaceuticals, 2022).
pIC50: −log10 of the molar value.

Experiments:
MDA-MB-231 cells = assay: AlamarBlue cell viability assay; assay type: cell-based; details: Homo sapiens, MDA-MB-231, 72 h
Protocol: The potent 3-fluoro-β-lactam compound 33 synthesised was also evaluated in the triple-negative MDA-MB-231 cell line which lacks expression of the estrogen and progesterone receptors (ER/PR) and the HER2 receptor. […]. Compound 32 was also evaluated in the triple-negative breast cancer cell line Hs578T and its isogenic subclone Hs578T(i)8 (Figure 4C). Hs578Ts(i)8 cells have 2.5-fold more migratory capacity and 3-fold more invasive capacity through the extracellular matrix than the parental cell line (Hs578T) and have 30% more CD44+/CD24-/low cells and in vivo proliferation. […]. […] Cell proliferation for MCF-7 cells was analysed with the AlamarBlue assay (Invitrogen Corp.) as previously described by us. […] Fluorescence results were obtained with a 96-well fluorimeter with excitation at 530 nm and emission at 590 nm with results recorded as percentage viability relative to vehicle control (100%). […]
Figure 4 Antiproliferative activity of 3-fluoro β-lactams on MCF-7, MDA-MB-231, Hs578T and Hs578T isogenic subclone Hs578T(i)8 breast cancer cells and non-tumourigenic HEK-293T cells. […] Cell viability was expressed as a percentage of vehicle control (ethanol 1% (v/v))-treated cells. […] Cell viability was expressed as a percentage of vehicle control (ethanol 1% (v/v))-treated cells and was measured by AlamarBlue assay (average of three independent experiments). […]

Bcl-2 = assay: Western blot of apoptosis regulatory proteins in MCF-7 cells; assay type: cell-based, human; details: MCF-7, 0.05, 0.1 and 0.5 μM, 48 and 72 h, dose-dependent
Protocol: (§1) The selective Bcl-2 inhibitor venetoclax was developed as a BH3-mimetic that binds to the pro-survival protein Bcl-2 and inhibits its ability to bind Bax or Bak. Venetoclax has been approved for clinical use in the treatment of chronic lymphocytic leukaemia (CLL). Compound 33 induced downregulation of Bcl-2 expression with corresponding upregulation of Bax at 48 h in a dose-dependent manner. This effect was further increased at 72 h.
(§2) Western blot analysis was performed according to the protocols we previously described. MCF-7 cells were seeded at a density of 1 × 10^5 cells/flask in T25 flasks. After 48 h, whole cell lysates were prepared from untreated cells or cells treated with vehicle control (EtOH, 0.1% v/v) or cells treated with compound 33 (0.05 μM, 0.1 μM and 0.5 μM). MCF-7 cells were harvested in RIPA buffer which was supplemented with protease inhibitors (Roche Diagnostics, Rotkreuz, Switzerland), phosphatase inhibitor cocktail 2 (Sigma-Aldrich, Arklow, Ireland) and phosphatase inhibitor cocktail 3 (Sigma-Aldrich, Arklow, Ireland). Equal amounts of protein (as determined by a BCA assay) were resolved by SDS-PAGE (12%) followed by transfer to PVDF membranes. […] Proteins were detected using enhanced chemiluminescent Western blot detection (Clarity Western ECL substrate) (Bio-Rad) on the ChemiDoc MP System (Bio-Rad). […]

Bax = assay: as above; assay type: cell-based, human; details: MCF-7, 0.05, 0.1 and 0.5 μM, 48 and 72 h, dose-dependent
Protocol: as §1, §2

Structure (SMILES) | pIC50 (MDA-MB-231 cells) | Bcl-2 expression (Bcl-2) | Bax expression (Bax)
COc1ccc(/C=C\c2cc(OC)c(OC)c(OC)c2)cc1O [CA-4, combretastatin A-4, reference compound] | 7.37 | – | –
COc1ccc(C2C(F)C(=O)N2c2cc(OC)c(OC)c(OC)c2)cc1F (stereo not shown) [Compound 33, 3-Fluoro-4-(3-fluoro-4-methoxyphenyl)-1-(3,4,5-trimethoxyphenyl)azetidin-2-one] | 6.21 | downregulation | upregulation
